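Five concentrations, 48 hours, 96-well plates. Definition used: TGI = concentration required for complete inhibition of growth.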
Legend:
Test in all cases: DTP human tumour cell line panel, 48 h
[1] = test system: MDA-MB-435
[2] = test system: SNB-75 CNS
[3] = test system: BT-549 breast
[4] = test system: KM12 colon
[5] = test system: RXF 393 renal
[6] = test system: OVCAR-4 ovarian
[7] = test system: U251 CNS
[8] = test system: SK-OV-3 ovarian
[9] = test system: HOP-62 NSCLC
[10] = test system: UACC-257 melanoma
[11] = test system: SF-295 CNS
[12] = test system: SF-268 CNS
[13] = test system: T-47D breast
[14] = test system: PC-3 prostate
[15] = test system: NCI-H226 lung
[16] = test system: SK-MEL-2 melanoma
[17] = test system: SF-539 CNS
[18] = test system: LOX IMVI melanoma
[19] = test system: MOLT-4 leukemia
[20] = test system: SK-MEL-5 melanoma
[21] = test system: UACC-62 melanoma
[22] = test system: RPMI-8226 leukemia
[23] = test system: NCI-H460 lung
[24] = test system: CAKI-1 renal
[25] = test system: CCRF-CEM leukemia
[26] = test system: MDA-N
[27] = test system: SN12C renal
[28] = test system: K-562 leukemia
[29] = test system: SW-620 colon
[30] = test system: NCI-H23 lung
[31] = test system: TK-10 renal
[32] = test system: EKVX NSCLC
[33] = test system: NCI/ADR-RES ovarian
[34] = test system: HOP-92 NSCLC
[35] = test system: SNB-19 CNS
[36] = test system: HCT-116 colon
[37] = test system: UO-31 renal
[38] = test system: A498 renal
[39] = test system: ACHN renal
[40] = test system: NCI-H522 lung
[41] = test system: OVCAR-8 ovarian
[42] = test system: A549 NSCLC
[43] = test system: MDA-MB-231 breast
[44] = test system: HCC-2998 colon
[45] = test system: DU-145 prostate
[46] = test system: OVCAR-5 ovarian
[47] = test system: M14 melanoma
[48] = test system: 786-0 renal
[49] = test system: OVCAR-3 ovarian
[50] = test system: IGROV1 ovarian
[51] = test system: SR leukemia
[52] = test system: HS 578T breast
[53] = test system: MCF7 breast
[54] = test system: HCT-15 colon
[55] = test system: COLO 205 colon
[56] = test system: HT29 colon
[57] = test system: MALME-3M melanoma
[58] = test system: SK-MEL-28 melanoma
[59] = test system: HL-60(TB) leukemia

Measured: TGI

COc1cc2nc3c(=C(C#N)C#N)c4ccccc4n3c(=O)c2cc1OC
not listed: [57] | [58] | [59]
> 100 µM: all other assays above

COc1ccc(Nc2nc3cc(C(F)(F)F)ccc3n3cccc23)cc1OC
36.5 µM: [43]
24.7 µM: [48]
48.7 µM: [9]
47.5 µM: [34]
43.2 µM: [30]
36.3 µM: [1]
28.7 µM: [23]
92.1 µM: [8]
56.1 µM: [3] | [54]
39.5 µM: [2]
15.8 µM: [18]
30.9 µM: [16]
30.1 µM: [11]
50.8 µM: [42]
27.6 µM: [20]
63.4 µM: [37]
54.4 µM: [57]
24.1 µM: [56]
26.8 µM: [14]
27.4 µM: [36]
52.6 µM: [28] | [45]
51.5 µM: [53]
29.3 µM: [26]
74.3 µM: [39]
41.5 µM: [40]
34 µM: [4] | [17]
37.8 µM: [19]
58.5 µM: [32]
58 µM: [46]
50.1 µM: [33]
60.9 µM: [35]
87.8 µM: [41]
29 µM: [5]
28.9 µM: [21]
67 µM: [59]
32.6 µM: [38]
34.8 µM: [10]
34.9 µM: [13] | [51]
54 µM: [49]
31.3 µM: [47]
27.3 µM: [44]
28.6 µM: [7]
49 µM: [31]
55.1 µM: [22]
not listed: [6] | [15] | [27] | [55]
> 100 µM: all other assays above

C=C(C)c1nc(C#N)c(N)o1
not listed: [2] | [21] | [34] | [38] | [40] | [59]
> 100 µM: all other assays above

Reference: PubChem BioAssay (NCI)
